Results on eleven molecules are retold here after PubChem BioAssay (NCI).

Values joined by “and” are separate entries in the source; they are usually repeats but may differ in a detail not shown here. Equal values may be shown once.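 Test compounds were applied to cells in 96-well plates for 48 hours at 5 doses. GI50 = concentration required for 50% inhibition of growth. TGI: concentration producing complete growth inhibition.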

Among the test systems are SNB-19 CNS; LOX IMVI melanoma; HL-60(TB) leukemia; NCI-H522 lung; MALME-3M melanoma; CAKI-1 renal; OVCAR-8 ovarian; A498 renal; SF-539 CNS; SR leukemia.
Common to all, as to assay: NCI tumour cell line growth inhibition, 48 h

As for `O=c1ccn([C@H]2CSC[C@@H](CO)C2)c(=O)[nH]1`, the TGI with SNB-19 CNS, in the experiment with LOX IMVI melanoma, in the experiment with HL-60(TB) leukemia, in the experiment with NCI-H522 lung, in the experiment on MALME-3M melanoma and with CAKI-1 renal was > 100 µM each time. Further, the TGI with OVCAR-8 ovarian, in the experiment with A498 renal and in the experiment with SF-539 CNS was > 100 µM throughout.

`COc1cc2c3c(n(C)c(=O)c2cc1OC)-c1cc2c(cc1/C3=C\CN)OCO2`: the GI50 with SNB-19 CNS was < 0.0405 µM; in the experiment on LOX IMVI melanoma, 0.133 µM; in the experiment with HL-60(TB) leukemia it was 0.294 µM; with NCI-H522 lung, 0.835 µM; in the experiment with MALME-3M melanoma, 2.17 µM; in the experiment with CAKI-1 renal, 0.132 µM. The GI50 with OVCAR-8 ovarian was 0.774 µM; in the experiment on A498 renal it was 3.07 µM; in the experiment with SF-539 CNS, 0.227 µM. For the same molecule, the TGI with LOX IMVI melanoma is 1.46 µM; with HL-60(TB) leukemia it was > 100 µM; in the experiment with NCI-H522 lung, > 43.5 µM; with MALME-3M melanoma, > 40.4 µM; with CAKI-1 renal, 1.81 µM; with OVCAR-8 ovarian, > 51.9 µM. Further, the TGI with A498 renal is 86.8 µM.

In the case of `COC1(OC)C(N(C)C)=C(Cl)C(=O)/C1=C/C=O`, the TGI in the experiment on SNB-19 CNS, with SR leukemia, in the experiment on LOX IMVI melanoma, in the experiment with HL-60(TB) leukemia, with MALME-3M melanoma and with CAKI-1 renal was > 100 µM throughout. Besides, the TGI with OVCAR-8 ovarian and in the experiment on A498 renal was > 100 µM throughout.

Turning to `CC1CN(C(=O)CN2CCC(CCCCN(C)C)CC2)c2ccccc2NC1=O` (configuration not stated), the TGI in the experiment on SNB-19 CNS, with SR leukemia, in the experiment on LOX IMVI melanoma, with HL-60(TB) leukemia, in the experiment on MALME-3M melanoma and with CAKI-1 renal was > 100 µM in each case. For the same molecule, the TGI in the experiment on A498 renal was > 100 µM.

Take `O=C(Nc1nc(=S)c2c(ncn2CCOC(=O)c2ccccc2)[nH]1)c1ccccc1`: the TGI with SNB-19 CNS is > 100 µM; in the experiment with LOX IMVI melanoma, > 100 µM; with HL-60(TB) leukemia it was > 100 µM; with NCI-H522 lung, 68.1 µM; in the experiment with MALME-3M melanoma, > 100 µM; in the experiment on CAKI-1 renal it was > 100 µM. The values for the TGI in the experiment with OVCAR-8 ovarian, in the experiment with A498 renal and in the experiment with SF-539 CNS were > 100 µM, > 100 µM and 94.3 µM, respectively.

Consider `COc1cc(NCc2ccc3nc(N)nc(N)c3c2C)cc(OC)c1OC` (tested in a mixture with another compound), for which the TGI with SNB-19 CNS is 113 µM; with SR leukemia, > 44.4 µM; in the experiment with LOX IMVI melanoma it was 38.3 µM; in the experiment on HL-60(TB) leukemia, 29.4 µM and 26.3 µM; with MALME-3M melanoma, 30 µM and 49.4 µM; in the experiment on A498 renal it was 49.5 µM. Besides, the GI50 is 0.000242 µM with LOX IMVI melanoma and 0.000746 µM in the experiment with HL-60(TB) leukemia.

Turning to `CCCc1nc(NC#N)nc(C(=O)Nc2ccccc2)c1CC`, the TGI in the experiment with SNB-19 CNS, in the experiment with LOX IMVI melanoma, in the experiment on HL-60(TB) leukemia, in the experiment on NCI-H522 lung, in the experiment on MALME-3M melanoma and in the experiment on CAKI-1 renal was > 100 µM in each case. The TGI in the experiment on OVCAR-8 ovarian, in the experiment with A498 renal and in the experiment on SF-539 CNS was > 100 µM in each case.

As for `COc1ccc2[nH]cc(C3(c4c[nH]c5ccc(OC)cc45)C(=O)Nc4ccc(F)cc43)c2c1`, the GI50 was 3.28 µM with SNB-19 CNS; 2.03 µM in the experiment with SR leukemia; 1.65 µM in the experiment with LOX IMVI melanoma; 1.81 µM in the experiment with NCI-H522 lung; 2.44 µM in the experiment on MALME-3M melanoma; 2.29 µM with CAKI-1 renal. In addition, the GI50 in the experiment on OVCAR-8 ovarian was 2.75 µM; in the experiment with A498 renal it was 2.56 µM; with SF-539 CNS it was 3.24 µM. The TGI in the experiment with SNB-19 CNS was found to be 14.6 µM; with SR leukemia, 4.97 µM; with LOX IMVI melanoma, 3.26 µM; in the experiment on NCI-H522 lung, 3.77 µM; in the experiment on MALME-3M melanoma, 22.4 µM; in the experiment with CAKI-1 renal, 10.6 µM. Further, the TGI is 9.67 µM in the experiment with OVCAR-8 ovarian, 12 µM with A498 renal and 10.5 µM in the experiment on SF-539 CNS.

`O=C1Nc2ccccc2/C1=N\[O-].O=C1Nc2ccccc2/C1=N\[O-].[Cu+2]`: the GI50 in the experiment on SNB-19 CNS, with LOX IMVI melanoma, with HL-60(TB) leukemia, in the experiment on NCI-H522 lung, in the experiment on MALME-3M melanoma and in the experiment on CAKI-1 renal was > 100 µM each time. The GI50 in the experiment with OVCAR-8 ovarian, with A498 renal and in the experiment on SF-539 CNS was > 100 µM in each case. In addition, the TGI in the experiment on SNB-19 CNS, in the experiment with LOX IMVI melanoma, in the experiment with HL-60(TB) leukemia, in the experiment with NCI-H522 lung, in the experiment with MALME-3M melanoma and with CAKI-1 renal was > 100 µM each time. In addition, the TGI in the experiment with OVCAR-8 ovarian, in the experiment on A498 renal and with SF-539 CNS was > 100 µM each time.

Take `CCn1c2ccccc2c2cc(NC(=O)Nc3ccc([N+](=O)[O-])cc3C)ccc21`: the GI50 with SNB-19 CNS was 8.95 µM; with LOX IMVI melanoma it was 4.98 µM; in the experiment with HL-60(TB) leukemia, 1.06 µM; in the experiment on NCI-H522 lung, 1.96 µM; in the experiment with MALME-3M melanoma, 2.28 µM; with CAKI-1 renal, 4.35 µM. In addition, the results for the GI50 with OVCAR-8 ovarian, in the experiment with A498 renal and with SF-539 CNS were 4.61 µM, 11.5 µM and 1.83 µM, respectively. Moreover, the TGI was > 100 µM in the experiment on SNB-19 CNS; > 100 µM in the experiment with LOX IMVI melanoma; 5.85 µM in the experiment with HL-60(TB) leukemia; 7.64 µM in the experiment with NCI-H522 lung; 13 µM with MALME-3M melanoma; 17.5 µM with CAKI-1 renal. In addition, the TGI was found to be 37.7 µM in the experiment with OVCAR-8 ovarian, 64.1 µM in the experiment with A498 renal and 4.41 µM in the experiment on SF-539 CNS.

Take `Clc1ccc2[nH]cc(-c3nnnn3-c3ccccc3)c2c1`: the GI50 is 38.4 µM in the experiment with SNB-19 CNS; 4.4 µM in the experiment on SR leukemia; 10.5 µM in the experiment with LOX IMVI melanoma; 18.7 µM in the experiment on NCI-H522 lung; 13.5 µM in the experiment on MALME-3M melanoma; 29.5 µM with OVCAR-8 ovarian. The GI50 with A498 renal is 8.39 µM; in the experiment on SF-539 CNS, 16.5 µM. In addition, the TGI in the experiment with SNB-19 CNS is > 100 µM; with SR leukemia, > 38.9 µM; in the experiment on LOX IMVI melanoma it was > 53.5 µM; in the experiment on NCI-H522 lung, > 92.5 µM; with MALME-3M melanoma, > 56.5 µM; in the experiment with CAKI-1 renal it was 1.16 µM. For the same molecule, the TGI in the experiment on OVCAR-8 ovarian was > 93.3 µM; with A498 renal, 36.8 µM; in the experiment with SF-539 CNS, 39 µM.
